Experimental data from US9765035B2 (priority 2013, dated 2017).

Target: T1, Human CARM1 (PRMT4) (Homo sapiens, UniProt Q86X55)
T1 construct: Flag-CARM1-His; made in house; host or cells: HEK 293F cells (BacMam baculovirus)
T1 sequence (Q86X55 1-585 isoform Q86X55-1): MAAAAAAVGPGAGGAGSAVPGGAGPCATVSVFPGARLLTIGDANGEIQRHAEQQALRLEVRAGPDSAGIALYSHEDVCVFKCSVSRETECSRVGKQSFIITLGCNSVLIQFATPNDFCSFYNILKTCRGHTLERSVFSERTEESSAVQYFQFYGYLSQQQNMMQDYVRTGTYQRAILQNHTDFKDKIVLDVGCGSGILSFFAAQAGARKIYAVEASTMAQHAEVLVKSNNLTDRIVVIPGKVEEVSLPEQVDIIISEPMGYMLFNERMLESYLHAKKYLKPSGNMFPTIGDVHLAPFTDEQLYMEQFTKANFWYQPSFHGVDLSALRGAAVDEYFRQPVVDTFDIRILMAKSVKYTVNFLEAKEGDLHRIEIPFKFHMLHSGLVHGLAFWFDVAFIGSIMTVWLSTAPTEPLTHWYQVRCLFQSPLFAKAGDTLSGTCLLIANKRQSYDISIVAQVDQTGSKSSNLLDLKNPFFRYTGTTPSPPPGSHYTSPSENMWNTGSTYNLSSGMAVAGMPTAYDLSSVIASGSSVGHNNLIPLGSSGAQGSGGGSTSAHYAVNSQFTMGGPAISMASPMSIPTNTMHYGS
Experiment: CARM1 Biochemical Assay
Description: General Materials. S-adenosylmethionine (SAM), S-adenosylhomocysteine (SAH), bicine, Tween20, dimethylsulfoxide (DMSO), bovine skin gelatin (BSG), sodium butyrate and Tris(2-carboxyethyl)phosphine hydrochloride solution (TCEP) were purchased from Sigma-Aldrich at the highest level of purity possible. ^3H-SAM was purchase from American Radiolabeled Chemicals with a specific activity of 80 Ci/mmol. 384-well streptavidin Flashplates were purchased from PerkinElmer.
Substrates. Peptide representative of human histone H3 residues 16-30 was synthesized with an N-terminal linker-affinity tag motif and a C-terminal amide cap by 21st Century Biochemicals. The peptide was purified by high-performance liquid chromatography (HPLC) to greater than 95% purity and confirmed by liquid chromatography mass spectrometry (LC-MS). The sequence was Biot-Ahx-[…]-amide and contained a monomethylated arginine at position 26 (SEQ ID NO.: 14).
Molecular Biology: Human CARM1 (PRMT4) (NM_199141.1) transcript clone was amplified from an HEK 293 cDNA library, incorporating a flanking 5′ sequence encoding a FLAG tag ([…]) (SEQ ID NO.:6) fused directly to Ala 2 of CARM1 and 3′ sequence encoding a hexa His sequence ([…]) (SEQ ID NO.: 15) fused directly to Ser 608. The gene sequence encoding isoform1 containing a deletion of amino acids 539-561 was amplified subsequently and subcloned into pFastBacMam (Viva Biotech).
Protein Expression. Recombinant baculovirus were generated according to Bac-to-Bac kit instructions (Life Technologies). […] Infections were carried out at 37° C. for 48 hours, harvested by centrifugation, and stored at −80° C. for purification.
Protein Purification. […] Column was washed with 500 mM NaCl in buffer A and Flag-CARM1-His was eluted with 200 ug/ml FLAG peptide in buffer A. Pooled fractions were dialyzed in 20 mM Tris, 150 mM NaCl, 5% glycerol and 1 mM DTT, pH 7.8. The purity of recovered protein was 94.
General Procedure for CARM1 Enzyme Assays on Peptide Substrates. The assays were all performed in a buffer consisting of 20 mM Bicine (pH=7.6), 1 mM TCEP, 0.005% BSG, and 0.002% Tween 20, prepared on the day of use. Compounds in 100% DMSO (1 ul) were spotted into a polypropylene 384-well V-bottom plates (Greiner) using a Platemate Plus outfitted with a 384-channel head (Thermo Scientific). DMSO (1 ul) was added to Columns 11, 12, 23, 24, rows A-H for the maximum signal control and 1 ul of SAH, a known product and inhibitor of CARM1, was added to columns 11, 12, 23, 24, rows I-P for the minimum signal control. A cocktail (40 ul) containing the CARM1 enzyme was added by Multidrop Combi (Thermo-Fisher). The compounds were allowed to incubate with CARM1 for 30 min at room temperature, then a cocktail (10 ul) containing ^3H-SAM and peptide was added to initiate the reaction (final volume=51 ul). The final concentrations of the components were as follows: CARM1 was 0.25 nM, ^3H-SAM was 30 nM, peptide was 250 nM, SAH in the minimum signal control wells was 1 mM, and the DMSO concentration was 2%. The assays were stopped by the addition of non-radiolabeled SAM (10 ul) to a final concentration of 300 uM, which dilutes the ^3H-SAM to a level where its incorporation into the peptide substrate is no longer detectable. 50 ul of the reaction in the 384-well polypropylene plate was then transferred to a 384-well Flashplate and the biotinylated peptides were allowed to bind to the streptavidin surface for at least 1 hour before being washed once with 0.1% Tween20 in a Biotek EL×405 plate washer. The plates were then read in a PerkinElmer TopCount plate reader to measure the quantity of ^3H-labeled peptide bound to the Flashplate surface, measured as disintegrations per minute (dpm) or alternatively, referred to as counts per minute (cpm).
Where dpm=disintegrations per minute, cmpd=signal in assay well, and min and max are the respective minimum and maximum signal controls. […]

[1] = PRMT4 IC50, biochemical evaluation, CARM1 (PRMT4), peptide substrate
[2] = PRMT4 biochemical evaluation (numerical), single experiment or average of multiple experiments

SMILES | IC50 [2] [nM] | IC50 [1] [nM]
CNCCN(C)Cc1n[nH]c2ccc(O)cc12 [Compound 36, 3-((methyl(2-(methylamino)ethyl)amino)methyl)-1H-indazol-5-ol] | 6130 | 3010 to 10000
CNCCN(C)Cc1n[nH]c2ccc(C3CCCCC3)cc12 [Compound 47, N^1-((5-cyclohexyl-1H-indazol-3-yl)methyl)-N^1,N^2-dimethylethane-1,2-diamine] | 370 | 101 to 1000
CNCCN(C)Cc1n[nH]c2ccc(N3CCC4(CCCCC4)CC3)cc12 [Compound 43, N^1-((5-(3-azaspiro[5.5]undecan-3-yl)-1H-indazol-3-yl)methyl)-N^1,N^2-dimethylethane-1,2-diamine] | 1780 | 101 to 1000
CNCCN(C)Cc1nn(C2CCN(C(C)=O)CC2)c2ccc(OCc3ccc(C#N)cc3)cc12 [Compound 38] | > 10000 | 1010 to 3000
CNCCN(C)Cc1n[nH]c2ccc(C3=CCCCC3)cc12 [Compound 48] | 440 | 101 to 1000
CNCCN(C)Cc1n[nH]c2ccc(OC)cc12 [Compound 35] |  | 3010 to 10000
CNCCN(C)Cc1n[nH]c2cccc(OCCC(O)CO)c12 (centres unmarked) [Compound 40] | 2110 | 3010 to 10000

Further lines, with some results ahead:

IC50 [2] [nM] | SMILES | IC50 [1] [nM]
188 | CNCCN(C)Cc1nn(C)c2ccc(OCc3ccc(C#N)cc3)cc12 [Compound 32] | 101 to 1000
87.3 | CNCCN(C)Cc1n[nH]c2ccc(Oc3ccc(OC(C)C)cc3)cc12 [Compound 61] | 3010 to 10000
4160 | CNCCN(C)Cc1n[nH]c2ccc(OCc3ccc(C(N)=O)cc3)cc12 [Compound 69] | 3010 to 10000
> 10000 | CNCCN(C)Cc1n[nH]c2ccc(Oc3ccc(C)cc3)cc12 [Compound 55] | 101 to 1000
> 10000 | CNCCN(C)Cc1n[nH]c2ccc(Oc3ccccc3OC(C)C)cc12 [Compound 56] | 101 to 1000
